In patent publication US9872875B2, “Component and method for treating viral disease” (Institut Pasteur of Shanghai, Chinese Academy of Sciences, priority 2012, dated 2018):
Structures can show the parent of a compound that is named as a salt. Where two headings read alike, the source gives them in different places. Ends that are not written are not given here.

Assays:
[1] = system: EV71; test: Inhibition of EV71 replication in RD cells at 0.1, 1, 10 and 100 μM (CPE, crystal violet); assay type: cell-based, Enterovirus 71; settings: for Inhibition of EV71 replication: Table 8, antagonists
Description: Inhibitory effect of each P2X receptor antagonists and agonists on EV71 replication was measured at 0.1, 1, 10, and 100 μM. Specific procedures refer to “1” of Example 1. after infection, however, cells need to be incubated for 3˜4 days, stained with crystal violet, and observed under optical microscope to determine whether or not CPE (cytopathic effect) was present. In addition, the effect of compounds at each concentration on cytotoxicity to RD cells was determined. After culturing RD cells in various concentrations of compounds for 3˜4 days, stained with crystal violet, and observed under optical microscope to observe whether or not cell layer was damaged. Compounds capable of protecting cells from infection without damage of healthy cell layer can inhibit EV71 replication in RD cells.

[2] = target: T1, P2X1 receptor (Homo sapiens, UniProt P51575); settings: cited from earlier work
T1 sequence (P51575 1-399): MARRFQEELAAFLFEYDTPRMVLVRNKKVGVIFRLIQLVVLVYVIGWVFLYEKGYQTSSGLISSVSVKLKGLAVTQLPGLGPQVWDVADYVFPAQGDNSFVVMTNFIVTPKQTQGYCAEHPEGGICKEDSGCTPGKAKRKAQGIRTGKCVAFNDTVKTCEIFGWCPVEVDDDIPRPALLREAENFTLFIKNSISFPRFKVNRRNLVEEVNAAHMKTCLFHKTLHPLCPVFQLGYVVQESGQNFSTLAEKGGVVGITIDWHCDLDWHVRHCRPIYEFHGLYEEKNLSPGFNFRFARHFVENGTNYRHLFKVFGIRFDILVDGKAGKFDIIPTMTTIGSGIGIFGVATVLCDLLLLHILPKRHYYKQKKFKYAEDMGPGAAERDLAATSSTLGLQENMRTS

[3] = target: T2, P2X3 receptor (Homo sapiens, UniProt P56373); settings: cited from earlier work
T2 sequence (P56373 1-397): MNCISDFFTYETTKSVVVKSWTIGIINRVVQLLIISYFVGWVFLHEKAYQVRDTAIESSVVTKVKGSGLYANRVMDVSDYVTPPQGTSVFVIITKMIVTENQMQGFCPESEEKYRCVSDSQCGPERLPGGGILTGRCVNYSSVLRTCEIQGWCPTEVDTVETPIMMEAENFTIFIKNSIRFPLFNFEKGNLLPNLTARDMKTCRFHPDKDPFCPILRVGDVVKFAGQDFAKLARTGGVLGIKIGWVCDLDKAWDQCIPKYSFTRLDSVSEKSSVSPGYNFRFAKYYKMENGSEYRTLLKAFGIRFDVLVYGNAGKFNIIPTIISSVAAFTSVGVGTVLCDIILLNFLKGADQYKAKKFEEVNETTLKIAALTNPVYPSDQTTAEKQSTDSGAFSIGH

[4] = target: T3, P2X2 receptor (Homo sapiens, UniProt Q9UBL9); settings: cited from earlier work
T3 sequence (Q9UBL9 1-471): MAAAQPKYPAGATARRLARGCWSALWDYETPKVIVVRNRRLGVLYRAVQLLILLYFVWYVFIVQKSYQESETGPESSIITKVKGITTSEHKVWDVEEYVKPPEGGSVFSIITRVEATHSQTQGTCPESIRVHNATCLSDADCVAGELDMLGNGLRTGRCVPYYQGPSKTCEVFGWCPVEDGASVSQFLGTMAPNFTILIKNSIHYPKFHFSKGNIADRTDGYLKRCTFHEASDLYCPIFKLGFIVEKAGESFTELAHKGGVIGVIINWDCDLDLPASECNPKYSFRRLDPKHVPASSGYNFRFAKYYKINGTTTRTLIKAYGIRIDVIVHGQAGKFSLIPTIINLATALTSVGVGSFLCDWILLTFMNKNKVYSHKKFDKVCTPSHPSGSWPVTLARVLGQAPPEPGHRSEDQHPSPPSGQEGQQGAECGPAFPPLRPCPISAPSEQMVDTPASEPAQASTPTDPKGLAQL

[5] = system: EV71; test: Effects of other antagonists and agonists on EV71 (Table 9); assay type: cell-based, Enterovirus 71; set-up: key: “NO” indicates there is negative
[6] = target: T4, P2X7 receptor (Homo sapiens, UniProt Q99572); settings: cited from earlier work
T4 sequence (Q99572 1-595): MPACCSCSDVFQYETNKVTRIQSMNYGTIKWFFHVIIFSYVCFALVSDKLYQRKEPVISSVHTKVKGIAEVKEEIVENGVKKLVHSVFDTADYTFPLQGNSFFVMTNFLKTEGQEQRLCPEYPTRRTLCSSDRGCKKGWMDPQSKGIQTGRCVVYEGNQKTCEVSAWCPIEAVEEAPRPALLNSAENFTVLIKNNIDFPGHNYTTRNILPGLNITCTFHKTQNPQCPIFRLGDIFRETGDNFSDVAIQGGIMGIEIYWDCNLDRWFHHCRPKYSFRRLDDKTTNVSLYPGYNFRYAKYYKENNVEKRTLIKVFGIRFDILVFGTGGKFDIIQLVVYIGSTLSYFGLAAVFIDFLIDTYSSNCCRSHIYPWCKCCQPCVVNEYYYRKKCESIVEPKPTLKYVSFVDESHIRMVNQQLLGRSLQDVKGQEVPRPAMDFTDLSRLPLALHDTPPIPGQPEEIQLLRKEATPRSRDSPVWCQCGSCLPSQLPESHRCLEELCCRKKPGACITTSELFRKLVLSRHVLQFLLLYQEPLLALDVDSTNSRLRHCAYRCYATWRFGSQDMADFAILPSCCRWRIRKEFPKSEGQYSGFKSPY

| Compound | EV71 Log10 reduction [5] | P2X receptors 7 ([6]; Table 9, antagonists) | other results |
| --- | --- | --- | --- |
| O=C(Nc1cccc(C(=O)Nc2ccc(S(=O)(=O)O)c3cc(S(=O)(=O)O)cc(S(=O)(=O)O)c23)c1)Nc1cccc(C(=O)Nc2ccc(S(=O)(=O)O)c3cc(S(=O)(=O)O)cc(S(=O)(=O)O)c23)c1 [NF023, 8,8′-[carbonylbis(imino-3,1-phenylenecarbonylimino)]bis-1,3,5-naphthalene-trisulphonic acid, hexasodium salt] |  |  | inhibition of EV71 replication (statement in words) [1]: can also inhibit EV71 replication; Inhibition of EV71 replication [1]: + (+: inhibitory concentration >300 nM); P2X receptors 1 [2]: ++ (key: −: no activity; +: inhibitory concentration >300 nM; ++: inhibitory concentration = 10~300 nM; +++: inhibitory concentration <10 nM); P2X receptors 3 ([3]; Table 8, antagonists): + (+: inhibitory concentration >300 nM); P2X receptors 2 ([4]; Table 8, antagonists): + (+: inhibitory concentration >300 nM) |
| Cc1nc(N=Nc2ccc(C(=O)O)cc2)c(COP(=O)(O)O)c(C=O)c1O [MRS 2159] | NO |  | P2X receptors 1 ([2]; Table 9, antagonists): ✓ ✓ (✓ ✓ activating concentration 10 nM-300 nM) |
| Cc1cc(-c2ccc(N=Nc3ccc4c(S(=O)(=O)[O-])cc(S(=O)(=O)[O-])c(N)c4c3O)c(C)c2)ccc1N=Nc1ccc2c(S(=O)(=O)[O-])cc(S(=O)(=O)[O-])c(N)c2c1O.[Na+].[Na+].[Na+].[Na+] [Evans Blue] |  |  | inhibition of EV71 replication (statement in words) [1]: can also inhibit EV71 replication |
| CN([C@@H](Cc1ccc(OS(=O)(=O)c2cccc3cnccc23)cc1)C(=O)N1CCN(c2ccccc2)CC1)S(=O)(=O)c1cccc2cnccc12 [KN-62] | NO | ✓ ✓ (✓ ✓ activating concentration 10 nM-300 nM) |  |
| CCOc1ccc(Nc2ccc(/C(=C3C=C/C(=[N+](/CC)Cc4cccc(S(=O)(=O)[O-])c4)C=C/3C)c3ccc(N(CC)Cc4cccc(S(=O)(=O)[O-])c4)cc3C)cc2)cc1.[Na+] [BBG] | NO | ✓ ✓ ✓ (✓ ✓ ✓ activating concentration <10 nM) | P2X receptors 1 ([2]; Table 9, antagonists): ✓ (✓ activating concentration >300 nM); P2X receptors 2 ([4]; Table 9, antagonists): ✓ (✓ activating concentration >300 nM) |
| O=C1CSC(=O)N1C(CCc1ccncc1)COc1ccc(-c2cccc([N+](=O)[O-])c2)cc1 (stereo not drawn) [AZ 11645373] | NO | ✓ ✓ (✓ ✓ activating concentration 10 nM-300 nM) |  |
| Clc1cccc(-n2nnnc2NCc2ccccc2Oc2ccccn2)c1Cl [A 839977] | NO | ✓ ✓ (✓ ✓ activating concentration 10 nM-300 nM) |  |
| Clc1cccc(-c2nnnn2Cc2cccnc2)c1Cl [A 438079] | NO | ✓ ✓ (✓ ✓ activating concentration 10 nM-300 nM) |  |
| Cc1ccc(CN2CCNCC2)cc1NC(=O)CNc1ccc(F)c(F)c1 [GW 791343] | NO |  | P2X receptors 7 ([6]; Table 9, modulator, no key printed for this class): ✓ ✓ |
| O=C(O)c1cc(C(=O)O)c(C(=O)N(Cc2cccc(Oc3ccccc3)c2)[C@H]2CCCc3ccccc32)cc1C(=O)O [A-317491] | NO |  |  |
| LVVYPWT [Spinorphin] | NO |  | P2X receptors 3 ([3]; Table 9, antagonists): ✓ ✓ ✓ (✓ ✓ ✓ activating concentration <10 nM) |
| Nc1ncnc2c1ncn2[C@@H]1O[C@H](COP(=O)(O)O)C(O)C1OP(=O)(O)O (stereo partly drawn) [2′,5′-ADP] | NO |  |  |
| O=C(CC12CC3CC(CC(C3)C1)C2)Nc1cccc2nc(NCCNCCO)ccc12 [AZ 10606120] | NO |  |  |
| Nc1ncnc2c1ncn2[C@@H](C=O)O[C@@H](C=O)COP(=O)(O)OP(=O)(O)OP(=O)(O)O [oATP] | NO | ✓ ✓ (✓ ✓ activating concentration 10 nM-300 nM) |  |
| Cc1nc(N=Nc2cc(S(=O)(=O)[O-])c3cc([N+](=O)[O-])cc(S(=O)(=O)[O-])c3c2)c(COP(=O)([O-])[O-])c(C=O)c1O.[Na+].[Na+].[Na+].[Na+] [PPNDS, Pyridoxal-5′-phosphate-6-(2′-naphthylazo-6′-nitro-4′,8′-disulfonate) tetrasodium salt] |  |  | inhibition of EV71 replication (statement in words) [1]: can also inhibit EV71 replication; Inhibition of EV71 replication [1]: ++ (++: inhibitory concentration = 10~300 nM); P2X receptors 1 ([2]; Table 8, antagonists): ++ (++: inhibitory concentration = 10~300 nM) |
| O=C(Nc1cccc(C(=O)Nc2cc(C(=O)Nc3ccc(S(=O)(=O)O)c4cc(S(=O)(=O)O)cc(S(=O)(=O)O)c34)ccc2F)c1)Nc1cccc(C(=O)Nc2cc(C(=O)Nc3ccc(S(=O)(=O)O)c4cc(S(=O)(=O)O)cc(S(=O)(=O)O)c34)ccc2F)c1 [NF157, 8,8′-[Carbonylbis[imino-3,1-phenylenecarbonylimino(4-fluoro-3,1-phenylene)carbonylimino]]] |  |  | inhibition of EV71 replication (statement in words) [1]: can also inhibit EV71 replication |
| O=C1CN=C(c2cccc(Br)c2)c2oc3ccccc3c2N1 [5-BDBD] | NO |  |  |
| O=C(N[C@H](Cc1cscn1)C(=O)N[C@@H](CC1CCCCC1)[C@@H](O)[C@@H](O)C1CC1)c1nc2ccccc2[nH]1 [Ro 0437626] | NO |  | P2X receptors 1 ([2]; Table 9, antagonists): ✓ (✓ activating concentration >300 nM) |
| COc1ccc(CC(=O)NC(N=C(NC#N)Nc2cccc3ncccc23)C(C)(C)C)cc1OC (stereo not drawn) [A 740003] | NO | ✓ ✓ (✓ ✓ activating concentration 10 nM-300 nM) |  |
| O=C(Nc1cc(C(=O)Nc2ccc(S(=O)(=O)[O-])cc2)cc(C(=O)Nc2ccc(S(=O)(=O)[O-])cc2)c1)Nc1cc(C(=O)Nc2ccc(S(=O)(=O)[O-])cc2)cc(C(=O)Nc2ccc(S(=O)(=O)[O-])cc2)c1.[Na+].[Na+].[Na+].[Na+] [NF 110] | NO |  | P2X receptors 1 ([2]; Table 9, antagonists): ✓ ✓ (✓ ✓ activating concentration 10 nM-300 nM); P2X receptors 3 ([3]; Table 9, antagonists): ✓ ✓ (✓ ✓ activating concentration 10 nM-300 nM); P2X receptors 2 ([4]; Table 9, antagonists): ✓ (✓ activating concentration >300 nM) |
| COc1cc(C(C)C)c(Oc2cnc(N)nc2N)cc1I [AF353] | NO |  |  |
| Cc1nc(N=Nc2cc(S(=O)(=O)O)ccc2S(=O)(=O)O)c(COP(=O)(O)O)c(C=O)c1O [iso-PPADS, pyridoxal-phosphate-6-azophenyl-2′,5′-disulphonic acid] |  |  | inhibition of EV71 replication (statement in words) [1]: can also inhibit EV71 replication; Inhibition of EV71 replication [1]: + (+: inhibitory concentration >300 nM); P2X receptors 1 ([2]; Table 8, antagonists): ++ (++: inhibitory concentration = 10~300 nM); P2X receptors 3 ([3]; Table 8, antagonists): ++ (++: inhibitory concentration = 10~300 nM); P2X receptors 2 ([4]; Table 8, antagonists): ++ (++: inhibitory concentration = 10~300 nM) |
